Data reported in patent US20240327364A1, “THERAPEUTIC TARGETING OF GPR68 TO INDUCE FERROPTOSIS” (University Of Maryland, Baltimore, priority 2023, published 2024).

Legend:
PDX 08-387 cells = test: Cell survival, OGM2 with TMZ; assay type: cell-based, human; settings: OGM2 and TMZ, cell killing
Protocol: GBM neurospheres and low passage PDX models were plated in 96-well plates at 10,000 cells per well in 50 μL of neural stem cell media. The next day, the cells were treated with OGM2 compounds at the indicated concentrations, in triplicates, by adding an equal volume of medium containing 2× the final concentration of compound. Following 72 hours incubation under standard cell culture conditions, relative cell number was assessed using Cell Titer-Glo Luminescent Cell Viability Assay (Promega™) following the manufacturer's instructions. Luminescence was determined using a Cytation 5 reader and Gen5 software package (BioTek™). For U87 and U138 cell lines, one thousand cells were plated per well in a standard 96-well plate and allowed to attach for 24 hours before exposure to concentrations of vehicle, OGM2, or TMZ. Cells were treated for 72 hours and then stained with DAPI. A 10× magnification lens on a LionheartFX (BioTek™) was used to image the wells, and images were stitched together with Gen5 software (BioTek™). Automated nuclei counting was also done using the Gen5 software. Results reported as percent response relative to DMSO control. […]
Where appropriate, ANOVA, or student's T-test were conducted in PRISM. […] For drug interaction and therapeutic interaction, the coefficient of drug interaction (CDI) was calculated as follows: CDI=AB/(A×B). […]

PCTK3 = biological target: T1, PCTK3 (Homo sapiens, UniProt Q07002); test: KinomeScan; assay type: binding; settings: read-out: % Control
T1 construct: purchased DiscoveRx

A3 = biological target: T2, A3 (Homo sapiens, UniProt P0DMS8); test: GPCR Profiler; assay type: cell-based
T2 construct: host or cells: Chem-1 cells with promiscuous Gα15

Y4 = biological target: T3, Y4 (Homo sapiens, UniProt P50391); test: GPCR Profiler; assay type: cell-based
T3 construct: host or cells: Chem-1 cells expressing Galpha15

V1A = biological target: T4, V1A (Homo sapiens, UniProt P37288); test: GPCR Profiler; assay type: cell-based
T4 construct: host or cells: Chem-1 cells with Gα15

MYLK2 = biological target: T5, MYLK2 (Homo sapiens, UniProt Q9H1R3); test: KinomeScan; assay type: binding; settings: read-out: % Control
T5 construct: purchased DiscoveRx

PCTK2 = biological target: T6, PCTK2 (Homo sapiens, UniProt Q00537); test: KinomeScan; assay type: binding; settings: read-out: % Control
T6 construct: purchased DiscoveRx

S1P1 = biological target: T7, S1P1 (Homo sapiens, UniProt P21453); test: GPCR Profiler; assay type: cell-based
T7 construct: host or cells: Chem-1 cells with Gα15

TRKA = biological target: T8, TRKA (Homo sapiens, UniProt P04629); test: KinomeScan; assay type: binding; settings: read-out: % Control
T8 construct: purchased DiscoveRx (Fremont, CA)

panel of 442 kinases = test: KinomeScan panel (summary); assay type: binding; settings: 10 uM
PIPSK1C = biological target: T9, PIPSK1C (Homo sapiens, UniProt O60331); test: KinomeScan; assay type: binding; settings: read-out: % Control
T9 construct: purchased DiscoveRx (Fremont, CA)

MC5 = biological target: T10, MC5 (Homo sapiens, UniProt P33032); test: GPCR Profiler; assay type: cell-based
T10 construct: host or cells: Chem-1 cells with promiscuous Gα15

GABAB1b = biological target: T11, GABAB1b (Homo sapiens, UniProt Q9UBS5); test: GPCR Profiler; assay type: cell-based
T11 construct: host or cells: Chem-1 cells expressing Gα15

PDPK1 = biological target: T12, PDPK1 (Homo sapiens, UniProt O15530); test: KinomeScan; assay type: binding; settings: read-out: % Control
T12 construct: purchased DiscoveRx (Fremont, CA)

CDK2 = biological target: T13, CDK2 (Homo sapiens, UniProt P24941); test: KinomeScan; assay type: binding; settings: read-out: % Control
T13 construct: purchased DiscoveRx (KinomeScan service)

DRAK1 = biological target: T14, DRAK1 (Homo sapiens, UniProt Q9UEE5); test: KinomeScan; assay type: binding; settings: read-out: % Control
T14 construct: purchased DiscoveRx (Fremont, CA), KinomeScan service

FLT1 = biological target: T15, FLT1 (Homo sapiens, UniProt P17948); test: KinomeScan; assay type: binding; settings: read-out: % Control
T15 construct: purchased DiscoveRx (Fremont, CA)

T3 sequence (P50391 whole entry): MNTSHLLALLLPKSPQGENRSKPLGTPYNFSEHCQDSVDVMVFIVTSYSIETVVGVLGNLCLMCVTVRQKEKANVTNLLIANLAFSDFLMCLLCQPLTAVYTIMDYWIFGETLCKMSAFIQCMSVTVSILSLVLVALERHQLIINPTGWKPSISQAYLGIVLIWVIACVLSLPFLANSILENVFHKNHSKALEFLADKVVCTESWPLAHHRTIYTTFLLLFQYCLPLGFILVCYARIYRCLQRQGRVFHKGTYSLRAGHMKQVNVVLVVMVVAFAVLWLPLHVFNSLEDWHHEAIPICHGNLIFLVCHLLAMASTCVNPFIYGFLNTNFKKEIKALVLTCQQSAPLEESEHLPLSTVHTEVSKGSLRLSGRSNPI
T2 sequence (P0DMS8 whole entry): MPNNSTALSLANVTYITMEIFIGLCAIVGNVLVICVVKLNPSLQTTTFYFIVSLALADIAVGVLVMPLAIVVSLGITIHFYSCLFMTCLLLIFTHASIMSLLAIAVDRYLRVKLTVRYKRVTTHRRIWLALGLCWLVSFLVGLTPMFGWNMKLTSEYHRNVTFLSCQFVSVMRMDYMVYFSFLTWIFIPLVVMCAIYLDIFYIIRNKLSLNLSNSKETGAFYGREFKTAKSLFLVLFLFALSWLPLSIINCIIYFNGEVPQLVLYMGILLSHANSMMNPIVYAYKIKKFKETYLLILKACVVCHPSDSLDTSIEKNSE
T4 sequence (P37288 whole entry): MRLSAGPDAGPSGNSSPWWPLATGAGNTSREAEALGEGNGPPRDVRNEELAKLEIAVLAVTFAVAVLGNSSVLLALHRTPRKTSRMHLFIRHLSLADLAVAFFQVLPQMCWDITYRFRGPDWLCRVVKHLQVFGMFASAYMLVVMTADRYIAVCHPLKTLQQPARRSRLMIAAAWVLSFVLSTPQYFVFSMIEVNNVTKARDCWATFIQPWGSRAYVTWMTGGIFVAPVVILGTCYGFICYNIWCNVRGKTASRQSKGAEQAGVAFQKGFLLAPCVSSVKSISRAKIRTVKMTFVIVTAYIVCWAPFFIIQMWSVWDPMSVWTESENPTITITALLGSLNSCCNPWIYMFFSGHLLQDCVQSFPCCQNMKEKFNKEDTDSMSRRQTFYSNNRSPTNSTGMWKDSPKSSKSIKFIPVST
T7 sequence (P21453 whole entry, species assumed): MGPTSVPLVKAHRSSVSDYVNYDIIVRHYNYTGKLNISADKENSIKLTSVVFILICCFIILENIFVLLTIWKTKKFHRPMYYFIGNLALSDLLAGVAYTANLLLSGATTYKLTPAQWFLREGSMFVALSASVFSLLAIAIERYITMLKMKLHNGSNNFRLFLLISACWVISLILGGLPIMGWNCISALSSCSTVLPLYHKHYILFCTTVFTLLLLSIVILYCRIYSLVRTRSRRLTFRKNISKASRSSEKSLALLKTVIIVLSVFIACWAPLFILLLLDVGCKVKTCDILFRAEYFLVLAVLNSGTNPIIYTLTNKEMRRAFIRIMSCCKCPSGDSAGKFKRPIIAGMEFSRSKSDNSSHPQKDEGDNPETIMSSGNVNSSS
T11 sequence (Q9UBS5 1-844 isoform Q9UBS5-2): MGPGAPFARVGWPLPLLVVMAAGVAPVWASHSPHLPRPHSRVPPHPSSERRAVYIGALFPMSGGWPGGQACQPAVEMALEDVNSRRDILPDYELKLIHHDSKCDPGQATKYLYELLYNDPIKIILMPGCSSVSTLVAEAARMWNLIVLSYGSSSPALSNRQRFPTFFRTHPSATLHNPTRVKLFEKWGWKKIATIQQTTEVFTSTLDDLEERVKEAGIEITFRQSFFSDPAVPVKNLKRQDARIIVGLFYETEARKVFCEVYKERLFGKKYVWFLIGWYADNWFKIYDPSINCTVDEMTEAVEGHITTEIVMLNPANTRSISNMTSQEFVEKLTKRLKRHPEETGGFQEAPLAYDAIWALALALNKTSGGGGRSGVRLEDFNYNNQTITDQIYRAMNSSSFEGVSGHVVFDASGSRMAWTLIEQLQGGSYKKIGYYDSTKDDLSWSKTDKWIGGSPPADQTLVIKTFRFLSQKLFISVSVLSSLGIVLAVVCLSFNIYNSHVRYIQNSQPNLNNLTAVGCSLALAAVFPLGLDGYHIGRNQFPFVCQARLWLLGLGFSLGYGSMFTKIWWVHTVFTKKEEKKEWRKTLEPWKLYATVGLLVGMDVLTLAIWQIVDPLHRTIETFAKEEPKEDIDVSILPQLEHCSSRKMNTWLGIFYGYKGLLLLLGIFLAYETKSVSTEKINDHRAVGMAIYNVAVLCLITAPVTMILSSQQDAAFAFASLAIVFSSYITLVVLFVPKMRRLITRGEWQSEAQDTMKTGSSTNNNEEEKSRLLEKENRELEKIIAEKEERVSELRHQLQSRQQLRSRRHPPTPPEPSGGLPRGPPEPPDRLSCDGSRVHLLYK
T11 sequence (O75899 42-941 partner): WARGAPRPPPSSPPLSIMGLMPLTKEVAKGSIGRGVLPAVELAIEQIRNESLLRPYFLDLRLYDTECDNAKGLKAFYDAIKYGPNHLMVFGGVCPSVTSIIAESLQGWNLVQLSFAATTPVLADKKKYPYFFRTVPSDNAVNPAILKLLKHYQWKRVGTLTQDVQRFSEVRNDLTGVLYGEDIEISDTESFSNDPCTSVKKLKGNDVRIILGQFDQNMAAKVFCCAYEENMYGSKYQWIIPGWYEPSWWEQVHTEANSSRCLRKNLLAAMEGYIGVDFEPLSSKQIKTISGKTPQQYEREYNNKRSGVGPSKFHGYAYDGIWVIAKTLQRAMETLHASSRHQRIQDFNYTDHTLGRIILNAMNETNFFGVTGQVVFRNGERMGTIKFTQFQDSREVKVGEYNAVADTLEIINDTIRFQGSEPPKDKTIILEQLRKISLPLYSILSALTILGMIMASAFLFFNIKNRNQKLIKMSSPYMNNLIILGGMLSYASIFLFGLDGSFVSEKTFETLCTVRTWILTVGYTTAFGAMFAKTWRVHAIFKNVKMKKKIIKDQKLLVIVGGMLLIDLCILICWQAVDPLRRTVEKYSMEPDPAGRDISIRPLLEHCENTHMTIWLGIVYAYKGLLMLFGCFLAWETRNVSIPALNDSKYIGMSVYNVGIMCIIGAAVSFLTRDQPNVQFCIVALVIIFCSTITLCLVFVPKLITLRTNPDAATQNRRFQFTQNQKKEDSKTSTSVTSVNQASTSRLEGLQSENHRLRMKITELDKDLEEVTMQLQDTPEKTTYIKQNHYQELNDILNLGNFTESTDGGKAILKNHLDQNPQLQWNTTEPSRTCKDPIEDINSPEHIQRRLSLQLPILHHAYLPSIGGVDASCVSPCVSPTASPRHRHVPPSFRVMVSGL
T10 sequence (P33032 whole entry): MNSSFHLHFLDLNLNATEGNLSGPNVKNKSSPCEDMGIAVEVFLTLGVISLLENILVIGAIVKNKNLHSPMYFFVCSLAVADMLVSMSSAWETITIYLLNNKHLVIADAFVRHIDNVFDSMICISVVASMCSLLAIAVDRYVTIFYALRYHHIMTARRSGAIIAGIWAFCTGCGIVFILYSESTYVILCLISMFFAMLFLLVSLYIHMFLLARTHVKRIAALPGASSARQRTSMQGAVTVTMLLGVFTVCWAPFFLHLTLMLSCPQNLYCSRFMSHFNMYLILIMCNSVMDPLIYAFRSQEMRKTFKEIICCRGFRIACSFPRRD
T8 sequence (P04629 33-796): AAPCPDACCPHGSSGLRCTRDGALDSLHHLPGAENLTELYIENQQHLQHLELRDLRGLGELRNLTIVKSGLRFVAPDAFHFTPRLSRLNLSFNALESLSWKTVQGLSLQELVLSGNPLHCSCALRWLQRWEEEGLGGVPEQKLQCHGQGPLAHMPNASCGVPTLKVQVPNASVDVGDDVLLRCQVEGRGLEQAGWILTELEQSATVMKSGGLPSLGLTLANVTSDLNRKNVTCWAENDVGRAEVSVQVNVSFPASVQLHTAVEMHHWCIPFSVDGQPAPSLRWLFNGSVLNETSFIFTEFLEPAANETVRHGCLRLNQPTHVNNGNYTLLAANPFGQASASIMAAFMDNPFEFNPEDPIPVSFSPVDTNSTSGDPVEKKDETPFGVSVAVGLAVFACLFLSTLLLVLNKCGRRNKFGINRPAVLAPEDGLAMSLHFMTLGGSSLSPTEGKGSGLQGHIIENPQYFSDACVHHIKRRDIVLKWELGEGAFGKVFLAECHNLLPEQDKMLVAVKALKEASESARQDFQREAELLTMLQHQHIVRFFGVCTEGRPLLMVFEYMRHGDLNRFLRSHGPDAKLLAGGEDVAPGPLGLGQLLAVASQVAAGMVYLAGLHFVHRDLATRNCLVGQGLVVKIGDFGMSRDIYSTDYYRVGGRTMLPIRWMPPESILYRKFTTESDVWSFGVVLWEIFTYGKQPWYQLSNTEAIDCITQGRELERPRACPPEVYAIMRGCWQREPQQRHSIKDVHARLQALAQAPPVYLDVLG
T14 sequence (Q9UEE5 whole entry): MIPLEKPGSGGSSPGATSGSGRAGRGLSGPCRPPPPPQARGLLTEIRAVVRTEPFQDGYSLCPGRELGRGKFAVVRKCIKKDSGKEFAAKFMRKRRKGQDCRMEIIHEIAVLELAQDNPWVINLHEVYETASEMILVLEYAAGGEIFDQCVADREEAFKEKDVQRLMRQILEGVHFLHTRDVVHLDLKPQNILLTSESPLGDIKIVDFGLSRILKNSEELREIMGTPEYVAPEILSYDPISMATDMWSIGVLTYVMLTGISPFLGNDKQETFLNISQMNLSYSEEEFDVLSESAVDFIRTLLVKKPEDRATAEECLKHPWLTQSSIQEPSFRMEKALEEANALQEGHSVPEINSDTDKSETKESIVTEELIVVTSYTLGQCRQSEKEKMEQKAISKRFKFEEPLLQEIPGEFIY

Which “coefficient of drug interaction (CDI)” value (PDX 08-387 cells) does the source give for CCc1ccc2c(c1)C1(NN=C(c3ccccc3)S1)C(=O)N2 (centres unmarked) [OGM2] here?
The value was less than 0.7.

For CCc1ccc2c(c1)C1(NN=C(c3cccc4ccccc34)S1)C(=O)N2 (centres unmarked) [OGM1, 5-ethyl-5′-naphthalen-1-ylspiro[1H-indole-3,2′-3H-1,3,4-thiadiazole]-2-one], which remaining binding at 10 µM (PCTK3) is on record?
The remaining binding at 10 µM was 99%.

What about the Antagonism (A3; 10 uM) of the same compound?
The Antagonism was 3.2.

And the Agonism (A3; 12.5 uM)?
The Agonism was −0.4.

What about the Antagonism (Y4; 10 uM) of the same compound?
The Antagonism was −5.5.

And the Agonism (Y4; 12.5 uM)?
The Agonism was −0.2.

And the Antagonism (V1A; 10 uM)?
The Antagonism was 12.3.

What about the Agonism (V1A; 12.5 uM) of the same compound?
Its Agonism is 0.1.

And the remaining binding at 10 µM (MYLK2)?
The remaining binding at 10 µM was 100%.

And the remaining binding at 10 µM (PCTK2)?
The remaining binding at 10 µM was 100%.

And the Antagonism (S1P1; 10 uM)?
The Antagonism was 3.1.

What about the Agonism (S1P1; 12.5 uM) of the same compound?
Its Agonism is −0.4.

What about the remaining binding at 10 µM (TRKA) of the same compound?
Its remaining binding at 10 µM is 81%.

What about the “interaction with kinase domains” value (panel of 442 kinases) of the same compound?
Its value is “did not physically interact with the kinase domain of any kinase”.

What about the remaining binding at 10 µM (PIPSK1C) of the same compound?
Its remaining binding at 10 µM is 97%.

What about the Antagonism (MC5; 10 uM) of the same compound?
Its Antagonism is 13.9.

And the Agonism (MC5; 12.5 uM)?
Its Agonism is 0.9.

What about the Antagonism (GABAB1b; 10 uM) of the same compound?
Its Antagonism is 0.1.

What about the Agonism (GABAB1b; 12.5 uM) of the same compound?
Its Agonism is 0.6.

And the remaining binding at 10 µM (PDPK1)?
The remaining binding at 10 µM was 100%.

And the remaining binding at 10 µM (CDK2)?
Its remaining binding at 10 µM is 100%.

And the remaining binding at 10 µM (DRAK1)?
The remaining binding at 10 µM was 100%.

What about the remaining binding at 10 µM (FLT1) of the same compound?
Its remaining binding at 10 µM is 100%.
